Measured values reported in patent US11008290B2, “Halogenated quinoline derivatives as antimicrobial agents” (University of Florida Research Foundation, Incorporated, priority 2015, dated 2021).
In brackets after ≈: the same amount, converted by molar mass. Like-named read-outs stand apart in the source and are kept apart here.

Legend:
[1] = test system: MRSA-2 planktonic cells and biofilms; assay: Calgary Biofilm Device (CBD) MBC/MBEC determination; format: cell-based, Staphylococcus aureus; settings: for MBC: Staphylococcus aureus, MRSA, planktonic killing, CBD, first value of MBC/MBEC cell
Procedure: (§1) Biofilm eradication experiments were performed using the Calgary Biofilm Device to determine MBC/MBEC values for various compounds of interest (Innovotech, product code: 19111). The Calgary device (96-well plate with lid containing 96 total pegs to establish biofilms; 1 peg/well) was inoculated with 125 μL of a mid-log phase culture diluted 1,000-fold in tryptic soy broth with 0.5% glucose (TSBG) to establish bacterial biofilms after incubation at 37° C. for 24 hours. The lid of the Calgary device was then removed, washed and transferred to another 96-well plate containing 2-fold serial dilutions of the test compounds (the “challenge plate”). The total volume of media with compound in each well in the challenge plate was 150 μL. The Calgary device was then incubated at 37° C. for 24 hours. The lid was then removed from the challenge plate and MBC/MBEC values were determined using different final assays. […] The MBC values were determined as the concentration giving a lack of visible bacterial growth (e.g., turbidity). For determination of MBEC values, the Calgary device lid (with attached pegs/treated biofilms) was transferred to a new 96-well plate containing 150 μL of fresh TSBG media in each well and incubated for 24 hours at 37° C. to allow viable biofilms to grow and disperse resulting in turbidity after the incubation period. […] In select experiments, treated pegs from the Calgary device were removed from lead biofilm eradicators after final incubation, sonicated for 30 minutes in PBS and plated out to determine biofilm cell killing (e.g., colony forming unit per milliliter, CFU/mL).

[2] = test system: MRSE (ATCC 35984) planktonic cells and biofilms; assay: as above; format: cell-based, Staphylococcus epidermidis; settings: Staphylococcus epidermidis, planktonic killing, CBD, first value of cell
Procedure: as §1

[3] = test system: vancomycin-resistant Enterococcus faecium (VRE, ATCC 700221); assay: Minimum inhibitory concentration (MIC) susceptibility assay, broth microdilution; format: cell-based; settings: read-out: VRE MIC
Procedure: (§2) The minimum inhibitory concentration (MIC) for each compound was determined by the broth microdilution method as recommended by the Clinical and Laboratory Standards Institute (CLSI). In a 96-well plate, eleven two-fold serial dilutions of each compound were made in a final volume of 100 μL Luria Broth. Each well was inoculated with ˜10^5 bacterial cells at the initial time of incubation, prepared from a fresh log phase culture (OD600 of 0.5 to 1.0 depending on bacterial strain). […] The concentration range tested for each compound during this study was 0.10 to 100 μM. DMSO served as the vehicle and negative control in each microdilution MIC assay. DMSO was serially diluted with a top concentration of 1% v/v. Bacterial strains used: methicillin-resistant Staphylococcus aureus-2 (MRSA-2; clinical isolate from Shands Hospital in Gainesville, Fla.), methicillin-resistant Staphylococcus epidermidis (MRSE; ATCC 35984), vancomycin-resistant Enterococcus faecium (VRE, ATCC 700221).

[4] = test system: methicillin-resistant Staphylococcus aureus-2 (MRSA-2; clinical isolate); assay: as above; format: cell-based; settings: Staphylococcus, MRSA
Procedure: as §2

[5] = test system: methicillin-resistant Staphylococcus epidermidis (MRSE; ATCC 35984); assay: as above; format: cell-based; settings: for MIC: Staphylococcus epidermidis, read-out: MRSE MIC
Procedure: as §2

MRSA-2 = assay: Mechanistic investigations with metal(II)-cations (MIC assay with 200 μM metal salt); format: cell-based, Staphylococcus aureus; settings: MRSA-2; for MIC: Staphylococcus aureus
Procedure: as §2

[6] = test system: VRE (ATCC 700221) planktonic cells and biofilms; assay: Calgary Biofilm Device (CBD) MBC/MBEC determination; format: cell-based, Enterococcus faecium; settings: Enterococcus, planktonic killing, CBD, first value of cell
Procedure: as §1

human red blood cells = assay: Hemolysis assay; format: cell-based; settings: human, 1 h, pH 7.2
Procedure: Freshly drawn human red blood cells (hRBC with ethylenediaminetetraacetic acid (EDTA) as an anticoagulant) were washed with Tris-buffered saline (0.01M Tris-base, 0.155M sodium chloride (NaCl), pH 7.2) and centrifuged for 5 minutes at 3500 rpm. The washing was repeated three times with the buffer. In 96-well plate, the test compounds were added to the buffer. […] The plate was then incubated for 1 hour at 37° C. After incubation, the plate is centrifuged for 5 minutes at 3500 rpm. Then 80 μL of the supernatant were transferred to another 96-well plate and the Optical Density (OD) was read at 405 nm. […] The percent of hemolysis was calculated as (OD405 of the compound-OD405 DMSO)/(OD405 Triton X-OD405 buffer).

[7] = change in antibacterial activity according to MIC values
[8] = Table 3, at least three independent experiments, read-out: MRSA-2 MIC
[9] = Table 3, footnote c = lowest concentration tested, read-out: VRE MBC

SMILES	MBC ([1]; Table 3, read-out: MRSA-2 MBC)	% Haemolysis at 200 μM (human red blood cells)	MBC ([2]; Table 3, read-out: MRSE MBC)	MIC ([3]; Table 3)	MIC [4, 8]	MIC ([5]; Table 3)	MBC [6, 9]	other results
Oc1c(Br)cc(Br)c2ccc(CNc3ccc(Br)cc3)nc12 [HQ-6]	–	–	–	–	–	–	–	MBEC:MBC ratio ([1]; MRSA-2, CBD): equipotent killing efficiencies; MBC ([1]; Table 2, read-out: MRSA-2 Clinical Isolate MBC): 125 µM (≈ 60.9 µg/mL); MBC ([2]; Table 2, read-out: MRSE ATCC 35984 MBC): 5.9 µM (≈ 2.87 µg/mL); MIC ([3]; 18 h, Table 2, ATCC 700221): 0.39 to 0.78 µM (≈ 0.19 to 0.38 µg/mL); MIC ([3]; Table 2, ATCC 700221): 0.78 µM (≈ 0.38 µg/mL); MIC ([4]; Table 2, 2 to 6 independent experiments, read-out: MRSA-2 MIC): 3.13 µM (≈ 1.52 µg/mL); MIC ([4]; read-out: MIC): 4.69 µM (≈ 2.28 µg/mL); fold more potent antibacterial activities than vancomycin ([5]; MRSE, MIC, same assays): 5 fold; MIC ([5]; 18 h, Table 2, ATCC 35984): 0.15 to 0.3 µM (≈ 0.073 to 0.146 µg/mL); MIC ([5]; Table 2, ATCC 35984): 0.15 µM (≈ 0.073 µg/mL); Fold Δ (MIC w/Mg^2+) (MRSA-2; [7]): insignificant changes in antibacterial activities; Fold Δ (MIC w/Zn^2+) (MRSA-2; [7]): −6 fold; MIC (MRSA-2; 200 μM ammonium iron (II) sulfate hexahydrate, read-out: MIC w/Fe^2+): 9.38 µM; MIC (MRSA-2; 200 μM copper (II) sulfate, read-out: MIC w/Cu^2+): 1.13 µM; MIC (MRSA-2; 200 μM magnesium (II) sulfate, read-out: MIC w/Mg^2+): 3.13 µM; MIC (MRSA-2; 200 μM zinc (II) chloride, read-out: MIC w/Zn^2+): 0.78 µM; MBC ([6]; Table 2, read-out: VRE ATCC 700221 MBC): 3.9 µM (≈ 1.9 µg/mL)
NC(=O)c1cnccn1 [Pyrazinamide, reference compound]	> 2000 µM	≤1%	–	–	–	–	–	–
CCCCCNCc1ccc2c(Br)cc(Br)c(O)c2n1 [RA-HQ-2]	31.3 µM (≈ 12.6 µg/mL)	87.9%	23.5 µM (≈ 9.45 µg/mL)	3.13 µM (≈ 1.26 µg/mL)	2.35 µM (≈ 0.945 µg/mL)	1.56 µM (≈ 0.627 µg/mL)	15.6 µM (≈ 6.27 µg/mL)	MIC ([4]; read-out: MIC): 3.13 µM (≈ 1.26 µg/mL)
Oc1c(Br)cc(Br)c2ccc(CNc3ccc(Cl)cc3)nc12 [RA-HQ-13]	31.3 µM (≈ 13.9 µg/mL)	17.6%	31.3 µM (≈ 13.9 µg/mL)	0.78 µM (≈ 0.345 µg/mL)	0.78 µM (≈ 0.345 µg/mL)	0.3 µM (≈ 0.133 µg/mL)	1.5 µM (≈ 0.664 µg/mL)	–
Oc1c(Br)cc(Br)c2ccc(CNc3ccc(I)cc3)nc12 [RA-HQ-14]	250 µM (≈ 133 µg/mL)	11.0%	46.9 µM (≈ 25 µg/mL)	4.69 µM (≈ 2.5 µg/mL)	4.69 µM (≈ 2.5 µg/mL)	0.78 µM (≈ 0.417 µg/mL)	46.9 µM (≈ 25 µg/mL)	–
Oc1c(Br)cc(Br)c2ccc(CNc3cccc(Br)c3)nc12 [RA-HQ-15]	188 µM (≈ 91.6 µg/mL)	37.3%	31.3 µM (≈ 15.2 µg/mL)	0.78 µM (≈ 0.38 µg/mL)	1.56 µM (≈ 0.76 µg/mL)	0.2 µM (≈ 0.0974 µg/mL)	7.8 µM (≈ 3.8 µg/mL)	–
Oc1c(Br)cc(Br)c2ccc(CNc3cc(Br)ccc3Br)nc12 [RA-HQ-17]	750 µM (≈ 424 µg/mL)	7.4%	188 µM (≈ 106 µg/mL)	1.56 µM (≈ 0.883 µg/mL)	3.13 µM (≈ 1.77 µg/mL)	0.59 µM (≈ 0.334 µg/mL)	31.3 µM (≈ 17.7 µg/mL)	–
Oc1c(I)cc(I)c2ccc(CNc3ccccc3)nc12 [RA-HQ-22]	> 1000 µM	3.0%	250 µM (≈ 126 µg/mL)	9.38 µM (≈ 4.71 µg/mL)	> 100 µM	4.69 µM (≈ 2.35 µg/mL)	31.3 µM (≈ 15.7 µg/mL)	–
Oc1c(I)cc(I)c2ccc(CNc3ccc(Br)cc3)nc12 [RA-HQ-23]	> 1000 µM	3.3%	125 µM (≈ 72.6 µg/mL)	25 µM (≈ 14.5 µg/mL)	25 µM (≈ 14.5 µg/mL)	12.5 µM (≈ 7.26 µg/mL)	31.3 µM (≈ 18.2 µg/mL)	–
